Among the data in BindingDB's records for doi:10.1021/np960678l (1997) are Ki values, retold here.

In this assay the target is T1, 5-hydroxytryptamine receptor 1A (Homo sapiens, UniProt P08908).
T1 sequence (P08908 whole entry): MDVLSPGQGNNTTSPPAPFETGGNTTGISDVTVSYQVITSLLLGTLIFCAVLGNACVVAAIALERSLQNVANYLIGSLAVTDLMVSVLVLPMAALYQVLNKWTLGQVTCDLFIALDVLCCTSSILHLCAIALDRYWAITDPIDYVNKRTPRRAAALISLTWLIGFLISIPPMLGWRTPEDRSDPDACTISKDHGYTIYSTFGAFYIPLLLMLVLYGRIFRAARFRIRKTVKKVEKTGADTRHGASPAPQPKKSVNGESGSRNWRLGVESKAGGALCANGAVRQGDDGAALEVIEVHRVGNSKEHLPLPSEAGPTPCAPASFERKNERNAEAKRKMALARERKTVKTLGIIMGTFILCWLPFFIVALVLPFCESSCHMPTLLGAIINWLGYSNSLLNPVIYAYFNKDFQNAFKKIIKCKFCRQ
Briefly: Displacement of [3H]8-OH-DPAT from 5HT1A receptor by vacuum filtration.

Each structure is given as a SMILES string. Bounds are passed on as bounds.

Take `COc1cc(-c2oc3cc(O)cc(=O)c-3c(O)c2O[C@@H]2O[C@H](CO)[C@H](O)[C@H](O)[C@H]2O)ccc1O` [isohamnetin 3-O-galactoside]: the Ki was greater than 100 µM.
